Columns and labels:
[1] = tested on: human, dermal fibroblasts (BJ cell line); assay: Oxygen consumption rate (oxidative phosphorylation) of fibroblasts, XF Extracellular Flux Analyzer; assay type: cell-based; set-up: Average OCR value per treatment group: unit not given here; conditions: for effect on reduction in OCR caused by hydrogen peroxide: in combination with 1.5 mM H2O2
Procedure: (§1) With regard to the fibroblasts discussed above in FIGS. 5A, 5B, SC, 5D, 5E, 6, 7A, 7B, 7C, 7D, 7E and 8 frozen, human dermal fibroblasts were obtained from the BJ cell line commercially available from ATCC, Bethesda, Md. The fibroblasts were grown to 70-80% confluence in a fibroblast culture medium of Eagle's Minimum Essential Medium (“EMEM”) supplemented with 10% fetal bovine serum (“FBS”) and gentamicin/amphotericin B ×500 solution (EMEM and FBS are available from ATCC and gentamicin/amphotericin B ×500 solution is available from Invitrogen). […] Each well included 100 μL of the fibroblast medium described above. A test medium was made from Dulbecco's Modified Eagle Medium (available from Seahorse Bioscience), 25 mM Glucose and 1 mM pyruvate. The test medium was warmed to 37° C. and the pH adjusted to 7.4. The cells were grown and plated at 37° C. and 5% CO2 air. The fibroblast medium in the wells was replaced by the test medium 1 hour prior to taking measurements. Oxygen consumption rate and extracellular acidification rate may be detected using an XF Extracellular Flux Analyzer or equivalent. The device should be capable of non-lethally and simultaneously detecting metabolic indicators of the oxphos and glycolysis pathways in a controlled environment, as well as providing […]. The cells may be provided in a multi-well plate suitable for use with the instrument (e.g., 24-well or 96 well plate) and washed prior to testing. The cells may be washed by any suitable means known in the art (e.g., using a Seahorse Biosciences XF prep station). It may be desirable to use a suitable prep station such as an XF prep station available from Seahorse Biosciences). When washing the cells, it may be desirable to remove the medium from the wells and wash the cells three times with a suitable amount of test medium (e.g., 180 μL in a 96-well plate or 600 μL in a 24-well plate). After washing the cells, a suitable amount (e.g., 180 μL) of an appropriate test medium is placed in each well, and the cells are equilibrated at 37° C. in a CO2-free incubator for 1-1.5 hours prior to taking placing the plate in the instrument for testing. Following the equilibration period, load the plate containing the cells into the instrument and equilibrate according to manufacturer's instructions. The entire test is conducted at 37° C. In some embodiments, the instrument may be to provide a three minute mix cycle, a two minute wait cycle, and a 3 minute measurement cycle for keratinocytes and a two minute mix cycle, two minute wait cycle, and 3 minute measurement cycle for fibroblasts. The cycles should be repeated for at least 88 minutes. It is to be appreciated that the cycles and times may be modified according to cell type and experiment design, as desired. The following example illustrates how the method herein can be used to identify synergistic combinations of skin care actives. Hydrogen peroxide is a well known ROS, and is used in this example to illustrate the undesirable metabolic effects associated with exposure of a cell to an oxidative stressor. The hydrogen peroxide was prepared at 10X working concentration in the fibroblast test medium described above. The test agents are niacinamide (also known as vitamin B3) and tocoquinone both commercially available from Sigma. The test agents were each prepared at 10× the final working concentration in the fibroblast test medium described above to provide a test agent solution. The stressor solution and the test agent solutions were both warmed to 37° C. and pH adjusted to 7.4. The cells are frozen, human, dermal fibroblasts obtained from ATCC (BJ cell line). The cells were cultured and prepared according to the test method described above. The fibroblasts were plated in Gelatin-coated, 96-well plate. Each well contained approximately 4×10^4 cells and 180 μL of fibroblast test medium (i.e., Seahorse Biosciences DMEM, 25 mM glucose and 1 mM pyruvate) at 37° C. and pH 7.4. […]

[2] = tested on: human, dermal fibroblasts (BJ cell line); assay: Extracellular acidification rate (glycolysis) of fibroblasts, XF Extracellular Flux Analyzer; assay type: cell-based
Procedure: as §1

[3] = rate number 1, before addition of stressor/test agents (basal)
[4] = rate number 2, before addition of stressor/test agents (basal)
[5] = rate number 3, before addition of stressor/test agents (basal, reference)
[6] = rate number 4, 1.5 mM hydrogen peroxide, 0.25 mM niacinamide, 0.025 mM tocoquinone
[7] = rate number 5, 1.5 mM hydrogen peroxide, 0.25 mM niacinamide, 0.025 mM tocoquinone
[8] = rate number 6, 1.5 mM hydrogen peroxide, 0.25 mM niacinamide, 0.025 mM tocoquinone
[9] = rate number 7, 1.5 mM hydrogen peroxide, 0.25 mM niacinamide, 0.025 mM tocoquinone
[10] = rate number 8, 1.5 mM hydrogen peroxide, 0.25 mM niacinamide, 0.025 mM tocoquinone
[11] = rate number 9, 1.5 mM hydrogen peroxide, 0.25 mM niacinamide, 0.025 mM tocoquinone
[12] = rate number 10, 1.5 mM hydrogen peroxide, 0.25 mM niacinamide, 0.025 mM tocoquinone
[13] = rate number 11, 1.5 mM hydrogen peroxide, 0.25 mM niacinamide, 0.025 mM tocoquinone
[14] = rate number 12, 1.5 mM hydrogen peroxide, 0.25 mM niacinamide, 0.025 mM tocoquinone
[15] = rate number 13, 1.5 mM hydrogen peroxide, 0.25 mM niacinamide, 0.025 mM tocoquinone
[16] = rate number 14, 1.5 mM hydrogen peroxide, 0.25 mM niacinamide, 0.025 mM tocoquinone
[17] = rate number 15, 1.5 mM hydrogen peroxide, 0.25 mM niacinamide, 0.025 mM tocoquinone
[18] = rate number 16, 1.5 mM hydrogen peroxide, 0.25 mM niacinamide, 0.025 mM tocoquinone
[19] = rate number 17, 1.5 mM hydrogen peroxide, 0.25 mM niacinamide, 0.025 mM tocoquinone
[20] = rate number 18, 1.5 mM hydrogen peroxide, 0.25 mM niacinamide, 0.025 mM tocoquinone
[21] = 0.25 mM niacinamide, 0.025 mM tocoquinone

## OO [hydrogen peroxide, reference compound]
[1]; 1.5 mM H2O2 by itself
  effect on OCR (oxphos metabolism): relatively sharp decrease in OCR followed by a less rapid increase
[1]; [3]
  Average OCR value per treatment group: 97.05
[1]; [4]
  Average OCR value per treatment group: 99.80
[1]; [5]
  Average OCR value per treatment group: 100
[1]; [6]
  Average OCR value per treatment group: −139.75
[1]; [7]
  Average OCR value per treatment group: −4.58
[1]; [8]
  Average OCR value per treatment group: −6.07
[1]; [9]
  Average OCR value per treatment group: −24.10
[1]; [10]
  Average OCR value per treatment group: −34.10
[1]; [11]
  Average OCR value per treatment group: −44.54
[1]; [12]
  Average OCR value per treatment group: −53.81
[1]; [13]
  Average OCR value per treatment group: −58.25
[1]; [14]
  Average OCR value per treatment group: −63.85
[1]; [15]
  Average OCR value per treatment group: −70.69
[1]; [16]
  Average OCR value per treatment group: −73.38
[1]; [17]
  Average OCR value per treatment group: −76.46
[1]; [18]
  Average OCR value per treatment group: −76.97
[1]; [19]
  Average OCR value per treatment group: −76.26
[1]; [20]
  Average OCR value per treatment group: −76.76
[2]; 1.5 mM hydrogen peroxide by itself
  effect on extracellular acidification rate (glycolysis metabolism): substantial decrease in extracellular acidification rate
[2]; [3]
  Average ECAR value per treatment group: 101.82 percentage of rate 3
[2]; [4]
  Average ECAR value per treatment group: 100.66 percentage of rate 3
[2]; [5]
  Average ECAR value per treatment group: 100 percentage of rate 3
[2]; [6]
  Average ECAR value per treatment group: 48.46 percentage of rate 3
[2]; [7]
  Average ECAR value per treatment group: 29.55 percentage of rate 3
[2]; [8]
  Average ECAR value per treatment group: 33.64 percentage of rate 3
[2]; [9]
  Average ECAR value per treatment group: 37.41 percentage of rate 3
[2]; [10]
  Average ECAR value per treatment group: 28.20 percentage of rate 3
[2]; [11]
  Average ECAR value per treatment group: 17.74 percentage of rate 3
[2]; [12]
  Average ECAR value per treatment group: 15.41 percentage of rate 3
[2]; [13]
  Average ECAR value per treatment group: 14.87 percentage of rate 3
[2]; [14]
  Average ECAR value per treatment group: 13.82 percentage of rate 3
[2]; [15]
  Average ECAR value per treatment group: 13.32 percentage of rate 3
[2]; [16]
  Average ECAR value per treatment group: 12.78 percentage of rate 3
[2]; [17]
  Average ECAR value per treatment group: 11.82 percentage of rate 3
[2]; [18]
  Average ECAR value per treatment group: 11.52 percentage of rate 3
[2]; [19]
  Average ECAR value per treatment group: 11.36 percentage of rate 3
[2]; [20]
  Average ECAR value per treatment group: 11.57 percentage of rate 3

## NC(=O)c1cccnc1 [niacinamide]
[1]; [21]
  effect on reduction in OCR caused by hydrogen peroxide: appears to lessen the reduction in OCR caused by the hydrogen peroxide
[1]; [3]
  Average OCR value per treatment group: 99.16
[1]; [4]
  Average OCR value per treatment group: 101.76
[1]; [5]
  Average OCR value per treatment group: 100
[1]; [6]
  Average OCR value per treatment group: −21.15
[1]; [7]
  Average OCR value per treatment group: 63.31
[1]; [8]
  Average OCR value per treatment group: 60.15
[1]; [9]
  Average OCR value per treatment group: 47.41
[1]; [10]
  Average OCR value per treatment group: 38.52
[1]; [11]
  Average OCR value per treatment group: 34.85
[1]; [12]
  Average OCR value per treatment group: 32.39
[1]; [13]
  Average OCR value per treatment group: 31.10
[1]; [14]
  Average OCR value per treatment group: 32.43
[1]; [15]
  Average OCR value per treatment group: 30.49
[1]; [16]
  Average OCR value per treatment group: 29.48
[1]; [17]
  Average OCR value per treatment group: 28.18
[1]; [18]
  Average OCR value per treatment group: 26.95
[1]; [19]
  Average OCR value per treatment group: 25.83
[1]; [20]
  Average OCR value per treatment group: 23.41
[2]; 0.25 mM niacinamide added by itself, no hydrogen peroxide
  effect on acidification rate (glycolysis metabolism): does not significantly affect glycolysis metabolism
[2]; added in combination with 1.5 mM hydrogen peroxide
  effect on glycolysis metabolism in combination with hydrogen peroxide: appears to lessen the detrimental effect of the hydrogen peroxide on glycolysis metabolism
[2]; [3]
  Average ECAR value per treatment group: 107.35 percentage of rate 3
[2]; [4]
  Average ECAR value per treatment group: 99.41 percentage of rate 3
[2]; [5]
  Average ECAR value per treatment group: 100 percentage of rate 3
[2]; [6]
  Average ECAR value per treatment group: 64.35 percentage of rate 3
[2]; [7]
  Average ECAR value per treatment group: 33.18 percentage of rate 3
[2]; [8]
  Average ECAR value per treatment group: 34.48 percentage of rate 3
[2]; [9]
  Average ECAR value per treatment group: 42.19 percentage of rate 3
[2]; [10]
  Average ECAR value per treatment group: 49.60 percentage of rate 3
[2]; [11]
  Average ECAR value per treatment group: 55.87 percentage of rate 3
[2]; [12]
  Average ECAR value per treatment group: 60.52 percentage of rate 3
[2]; [13]
  Average ECAR value per treatment group: 62.89 percentage of rate 3
[2]; [14]
  Average ECAR value per treatment group: 60.57 percentage of rate 3
[2]; [15]
  Average ECAR value per treatment group: 57.46 percentage of rate 3
[2]; [16]
  Average ECAR value per treatment group: 55.04 percentage of rate 3
[2]; [17]
  Average ECAR value per treatment group: 52.85 percentage of rate 3
[2]; [18]
  Average ECAR value per treatment group: 51.52 percentage of rate 3
[2]; [19]
  Average ECAR value per treatment group: 49.85 percentage of rate 3
[2]; [20]
  Average ECAR value per treatment group: 47.58 percentage of rate 3

## CC1=C(C)C(=O)C(CCC(C)(O)CCCC(C)CCCC(C)CCCC(C)C)=C(C)C1=O (stereo not drawn) [tocoquinone]
[1]; [21]
  effect on reduction in OCR caused by hydrogen peroxide: appears to lessen the reduction in OCR caused by the hydrogen peroxide about the same or slightly less than the niacinamide
[1]; [3]
  Average OCR value per treatment group: 101.04
[1]; [4]
  Average OCR value per treatment group: 101.44
[1]; [5]
  Average OCR value per treatment group: 100
[1]; [6]
  Average OCR value per treatment group: −21.48
[1]; [7]
  Average OCR value per treatment group: 64.55
[1]; [8]
  Average OCR value per treatment group: 68.43
[1]; [9]
  Average OCR value per treatment group: 59.47
[1]; [10]
  Average OCR value per treatment group: 53.35
[1]; [11]
  Average OCR value per treatment group: 49.83
[1]; [12]
  Average OCR value per treatment group: 48.18
[1]; [13]
  Average OCR value per treatment group: 48.82
[1]; [14]
  Average OCR value per treatment group: 49.81
[1]; [15]
  Average OCR value per treatment group: 47.50
[1]; [16]
  Average OCR value per treatment group: 44.97
[1]; [17]
  Average OCR value per treatment group: 41.00
[1]; [18]
  Average OCR value per treatment group: 37.55
[1]; [19]
  Average OCR value per treatment group: 32.67
[1]; [20]
  Average OCR value per treatment group: 28.15
[2]; [3]
  Average ECAR value per treatment group: 107.45 percentage of rate 3
[2]; [4]
  Average ECAR value per treatment group: 99.58 percentage of rate 3
[2]; [5]
  Average ECAR value per treatment group: 100 percentage of rate 3
[2]; [6]
  Average ECAR value per treatment group: 56.77 percentage of rate 3
[2]; [7]
  Average ECAR value per treatment group: 35.13 percentage of rate 3
[2]; [8]
  Average ECAR value per treatment group: 32.57 percentage of rate 3
[2]; [9]
  Average ECAR value per treatment group: 32.46 percentage of rate 3
[2]; [10]
  Average ECAR value per treatment group: 34.54 percentage of rate 3
[2]; [11]
  Average ECAR value per treatment group: 36.55 percentage of rate 3
[2]; [12]
  Average ECAR value per treatment group: 36.68 percentage of rate 3
[2]; [13]
  Average ECAR value per treatment group: 35.75 percentage of rate 3
[2]; [14]
  Average ECAR value per treatment group: 32.86 percentage of rate 3
[2]; [15]
  Average ECAR value per treatment group: 29.78 percentage of rate 3
[2]; [16]
  Average ECAR value per treatment group: 28.15 percentage of rate 3
[2]; [17]
  Average ECAR value per treatment group: 28.07 percentage of rate 3
[2]; [18]
  Average ECAR value per treatment group: 30.73 percentage of rate 3
[2]; [19]
  Average ECAR value per treatment group: 31.49 percentage of rate 3
[2]; [20]
  Average ECAR value per treatment group: 31.18 percentage of rate 3
